Source: patent US9810700B1, “Fluorogenic calcium ion indicators and methods of using the same” (AAT Bioquest, Inc., priority 2017, dated 2017)
Converted amounts (≈) assume the structure as drawn.

Legend:
[1] = Water solubility comparison of PEGTA compounds and conventional BAPTA calcium indicator AM esters; format: physicochemical; conditions: PBS, AM ester; for solubility: aqueous buffer, 25° C., read-out: Water solubility at 25° C. (PEGTA Compound)
CHO-K1 cells = experiment: ATP-stimulated calcium response monitored with FlexStation; format: cell-based; conditions: in the absence of probenecid; compared with Fluo-4 AM
Procedure: (§1) CHO-K1 cells are seeded overnight at 50,000 cells per 100 μl per well in a 96-well black wall/clear bottom costar plate. The growth medium is removed, and the cells are incubated with 100 μl of Compound 24 and Fluo-4 AM at 5 μM in Hanks and Hepes buffer in the presence of 2.5 mM probenecid for 1 hour at 37° C., 5% CO2 incubator. ATP (10 μM) is added by FlexStation to stimulate cell calcium, and the time-dependent calcium response is monitored with FlexStation.
CHO-K1 cells are seeded overnight at 50,000 cells per 100 μl per well in a 96-well black wall/clear bottom costar plate. The growth medium is removed, and the cells are incubated with 100 μl of Compound 24 and Fluo-4 AM at 5 μM in Hanks and Hepes buffer for 2 hours at 25° C. ATP (50 μL/well) is added by FlexStation to achieve the final desired concentrations.
as §1, with “CHO-K” for “CHO-K1”, “FlexStation. […]” for “FlexStation.”

[2] = system: CHO cells stably transfected with muscarinic receptor 1; experiment: Calcium flux assay, indicator AM esters loaded into cells, with or without probenecid; format: cell-based; conditions: probenecid is not used
Procedure: In some embodiments, the fluorescent ion indicators are used in a method to measure calcium flux. Cells (e.g., CHO cells) stably transfected with muscarinic receptor 1 are plated—e.g., at 60,000 cells per 100 μl per well in F12 with 5% FBS and 1% glutamine in a 96-well black wall/clear bottom Costar plate—and incubated (e.g., in 5% CO2 at 37° C. overnight). The growth medium is removed and the cells are incubated with a fluorescent ion indicator (e.g., with 100 μl/well of 1-8 μM Fluo-3 AM, Fluo-4 AM or one or more compounds selected from Compound 22, 23, 24, 28, 33, 34, 40, 41 or 188 in Hanks and HEPES buffer for 1 hour at 37° C., 5% CO2) with or without probenecid. Carbachol or ATP is added (e.g., 50 μl/well by NOVOstar, FlexStation or FLIPR) to achieve a final concentration.
Cells expressing a GPCR of interest that signals through calcium are pre-loaded with the indicator AM esters (such as Fluo-3 AM. Fluo-4 AM, Compounds 22, 23, 24, 28, 33, 34, 40, 41 or 188) which can cross cell membrane. […] When the sample cells are stimulated with screening compounds, the receptor triggers a release of intracellular calcium, which then greatly increases the fluorescence of the intracellular indicators. […]

Row | solubility [1] [µg/mL] | Water solubility at 25° C. (BAPTA Compound) [1] [μg/ml PBS] | SMILES | fluorescence intensity enhancement upon calcium stimulation (CHO-K1 cells) | fluorescence intensity compared with the corresponding BAPTA compounds [2] | capability of detecting calcium [2]
1 | 1.63 (≈ 1.49 µM) | – | CC(=O)OCOC(=O)CN(CCOCCOc1cc2c(cc1N(CC(=O)OCOC(C)=O)CC(=O)OCOC(C)=O)C(=O)OC21c2cc(F)c(OC(C)=O)cc2Oc2cc(OC(C)=O)c(F)cc21)CC(=O)OCOC(C)=O [Compound 22] | – | – | –
2 | 1.29 (≈ 1.34 µM) | – | CC(=O)OCOC(=O)CN(CCOCCOc1cc(C2=C3C(C)=CC(C)=[N+]3[B-](F)(F)n3c(C)cc(C)c32)ccc1N(CC(=O)OCOC(C)=O)CC(=O)OCOC(C)=O)CC(=O)OCOC(C)=O [Compound 188] | – | – | –
3 | – | 1.26 | CC(=O)OCOC(=O)CN(CC(=O)OCOC(C)=O)c1ccc(C)cc1OCCOc1cc(-c2c3cc(F)c(=O)cc-3oc3cc(OCOC(C)=O)c(F)cc23)ccc1N(CC(=O)OCOC(C)=O)CC(=O)OCOC(C)=O [Fluo-4 AM, reference compound] | – | – | not capable of detecting calcium in some types of cells and tissues

Row | SMILES | solubility [1] [µg/mL] | Water solubility at 25° C. (BAPTA Compound) [1] [μg/ml PBS] | fluorescence intensity enhancement upon calcium stimulation (CHO-K1 cells) | fluorescence intensity compared with the corresponding BAPTA compounds [2] | capability of detecting calcium [2]
4 | CC(=O)OCOC(=O)CN(CCOCCOc1cc(-c2c3cc(F)c(=O)cc-3oc3cc(OCOC(C)=O)c(F)cc23)ccc1N(CC(=O)OCOC(C)=O)CC(=O)OCOC(C)=O)CC(=O)OCOC(C)=O [Compound 24] | 2.18 (≈ 2.11 µM) | – | unexpected better fluorescence intensity enhancement | much greater than that of the corresponding BAPTA compounds | –
